From PubChem BioAssay AID1963965 (Molecular Pharmacology Branch, DTP, NCI, 2024)

Tested on: 996289-038-R-J1-PDC spheroid viability
Experiment: Anticancer human tumor 996289-038-R-J1-PDC patient-derived colon adenocarcinoma cell line growth inhibition [PI3K]
Conditions: spheroids with HUVEC and MSC; for IC50: curve of first compound; for viability, T/C: stronger effect = lower value
Method in brief: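 Multi-cell spheroids combine tumor cells with HUVEC and human MSCs, treated with targeted agents alone or with inavolisib, alpelisib, duvelisib or copanlisib. Concentrations fall in half-log steps from at or near clinical Cmax, or from 10 microM where Cmax is unknown; viability read-out.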

[1] = second compound 0.0316 µM, first compound 0.0316 µM
[2] = second compound 0.0316 µM, first compound 0.1 µM
[3] = second compound 0.0316 µM, first compound 0.316 µM
[4] = second compound 0.0316 µM, first compound 1 µM
[5] = second compound 0.0316 µM, first compound 3.16 µM
[6] = second compound 0.0316 µM, first compound 10 µM
[7] = second compound 0.1 µM, first compound 0.0316 µM
[8] = second compound 0.1 µM, first compound 0.1 µM
[9] = second compound 0.1 µM, first compound 0.316 µM
[10] = second compound 0.1 µM, first compound 1 µM
[11] = second compound 0.1 µM, first compound 3.16 µM
[12] = second compound 0.1 µM, first compound 10 µM
[13] = second compound 0.316 µM, first compound 0.0316 µM
[14] = second compound 0.316 µM, first compound 0.1 µM
[15] = second compound 0.316 µM, first compound 0.316 µM
[16] = second compound 0.316 µM, first compound 1 µM
[17] = second compound 0.316 µM, first compound 3.16 µM
[18] = second compound 0.316 µM, first compound 10 µM
[19] = second compound 1 µM, first compound 0.0316 µM
[20] = second compound 1 µM, first compound 0.1 µM
[21] = second compound 1 µM, first compound 0.316 µM
[22] = second compound 1 µM, first compound 1 µM
[23] = second compound 1 µM, first compound 3.16 µM
[24] = second compound 1 µM, first compound 10 µM
[25] = second compound 3.16 µM, first compound 0.0316 µM
[26] = second compound 3.16 µM, first compound 0.1 µM
[27] = second compound 3.16 µM, first compound 0.316 µM
[28] = second compound 3.16 µM, first compound 1 µM
[29] = second compound 3.16 µM, first compound 3.16 µM
[30] = second compound 3.16 µM, first compound 10 µM
[31] = second compound 10 µM, first compound 0.0316 µM
[32] = second compound 10 µM, first compound 0.1 µM
[33] = second compound 10 µM, first compound 0.316 µM
[34] = second compound 10 µM, first compound 1 µM
[35] = second compound 10 µM, first compound 3.16 µM
[36] = second compound 10 µM, first compound 10 µM
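Further: spheroids exposed to compounds for seven days before viability read.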
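Wherever viability, T/C is given: luminescence used as a proxy for viable cell amount; percent viability relative to DMSO vehicle control as 100%.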

## CC(C)NCC(C(=O)N1CCN(c2ncnc3c2C(C)CC3O)CC1)c1ccc(Cl)cc1 (stereo unspecified) + CC(Nc1ncnc2nc[nH]c12)c1cc2cccc(Cl)c2c(=O)n1-c1ccccc1
Second compound 0.0316 µM
  IC50: > 10 µM
Second compound 0.1 µM
  IC50: > 10 µM
Second compound 0.316 µM
  IC50: > 10 µM
Second compound 1 µM
  IC50: > 10 µM
Second compound 3.16 µM
  IC50: > 10 µM
Second compound 10 µM
  IC50: > 10 µM
[1]
  viability, T/C: 86.1%
[2]
  viability, T/C: 80.3%
[3]
  viability, T/C: 100%
[4]
  viability, T/C: 94.1%
[5]
  viability, T/C: 87.4%
[6]
  viability, T/C: 75.1%
[7]
  viability, T/C: 96.5%
[8]
  viability, T/C: 96.8%
[9]
  viability, T/C: 89.9%
[10]
  viability, T/C: 94.7%
[11]
  viability, T/C: 87.1%
[12]
  viability, T/C: 69.4%
[13]
  viability, T/C: 94.9%
[14]
  viability, T/C: 93.8%
[15]
  viability, T/C: 95.2%
[16]
  viability, T/C: 90%
[17]
  viability, T/C: 92.2%
[18]
  viability, T/C: 72.3%
[19]
  viability, T/C: 86.4%
[20]
  viability, T/C: 92.3%
[21]
  viability, T/C: 90.8%
[22]
  viability, T/C: 77.8%
[23]
  viability, T/C: 101%
[24]
  viability, T/C: 74.9%
[25]
  viability, T/C: 88.1%
[26]
  viability, T/C: 85%
[27]
  viability, T/C: 85.4%
[28]
  viability, T/C: 94.7%
[29]
  viability, T/C: 94.9%
[30]
  viability, T/C: 68.6%
[31]
  viability, T/C: 88.8%
[32]
  viability, T/C: 78.7%
[33]
  viability, T/C: 85.5%
[34]
  viability, T/C: 84.2%
[35]
  viability, T/C: 101%
[36]
  viability, T/C: 56.2%

## CCN1CCN(Cc2ccc(Nc3ncc(F)c(-c4cc(F)c5nc(C)n(C(C)C)c5c4)n3)nc2)CC1 + CC(Nc1ncnc2nc[nH]c12)c1cc2cccc(Cl)c2c(=O)n1-c1ccccc1
Second compound 0.0316 µM
  IC50: > 1 µM
Second compound 0.1 µM
  IC50: > 1 µM
Second compound 0.316 µM
  IC50: > 1 µM
Second compound 1 µM
  IC50: > 1 µM
Second compound 3.16 µM
  IC50: > 1 µM
Second compound 10 µM
  IC50: > 1 µM
Second compound 0.0316 µM, first compound 0.00316 µM
  viability, T/C: 111%
Second compound 0.0316 µM, first compound 0.01 µM
  viability, T/C: 94.2%
[1]
  viability, T/C: 92.2%
[2]
  viability, T/C: 87.1%
[3]
  viability, T/C: 79%
[4]
  viability, T/C: 74.1%
Second compound 0.1 µM, first compound 0.00316 µM
  viability, T/C: 102%
Second compound 0.1 µM, first compound 0.01 µM
  viability, T/C: 96.4%
[7]
  viability, T/C: 91.8%
[8]
  viability, T/C: 86.7%
[9]
  viability, T/C: 76.7%
[10]
  viability, T/C: 80%
Second compound 0.316 µM, first compound 0.00316 µM
  viability, T/C: 96.2%
Second compound 0.316 µM, first compound 0.01 µM
  viability, T/C: 93.7%
[13]
  viability, T/C: 89.1%
[14]
  viability, T/C: 80.3%
[15]
  viability, T/C: 75%
[16]
  viability, T/C: 80.4%
Second compound 1 µM, first compound 0.00316 µM
  viability, T/C: 104%
Second compound 1 µM, first compound 0.01 µM
  viability, T/C: 88.5%
[19]
  viability, T/C: 86%
[20]
  viability, T/C: 79.8%
[21]
  viability, T/C: 76.8%
[22]
  viability, T/C: 70.7%
Second compound 3.16 µM, first compound 0.00316 µM
  viability, T/C: 98.1%
Second compound 3.16 µM, first compound 0.01 µM
  viability, T/C: 105%
[25]
  viability, T/C: 79.4%
[26]
  viability, T/C: 86.6%
[27]
  viability, T/C: 81%
[28]
  viability, T/C: 68.8%
Second compound 10 µM, first compound 0.00316 µM
  viability, T/C: 82%
Second compound 10 µM, first compound 0.01 µM
  viability, T/C: 76%
[31]
  viability, T/C: 82.4%
[32]
  viability, T/C: 74.3%
[33]
  viability, T/C: 71%
[34]
  viability, T/C: 58.6%

## Cn1ncc(Cl)c1-c1cc(C(=O)NC(CN)Cc2cccc(F)c2)sc1Cl (stereo unspecified) + CC(Nc1ncnc2nc[nH]c12)c1cc2cccc(Cl)c2c(=O)n1-c1ccccc1
Second compound 0.0316 µM
  IC50: > 10 µM
Second compound 0.1 µM
  IC50: > 10 µM
Second compound 0.316 µM
  IC50: > 10 µM
Second compound 1 µM
  IC50: 9.38 µM
Second compound 3.16 µM
  IC50: 7.97 µM
Second compound 10 µM
  IC50: 5.1 µM
[1]
  viability, T/C: 92.2%
[2]
  viability, T/C: 92.1%
[3]
  viability, T/C: 81.2%
[4]
  viability, T/C: 71.6%
[5]
  viability, T/C: 70.6%
[6]
  viability, T/C: 61.2%
[7]
  viability, T/C: 102%
[8]
  viability, T/C: 88.5%
[9]
  viability, T/C: 83.5%
[10]
  viability, T/C: 73.9%
[11]
  viability, T/C: 69.1%
[12]
  viability, T/C: 54.2%
[13]
  viability, T/C: 102%
[14]
  viability, T/C: 98.8%
[15]
  viability, T/C: 85.2%
[16]
  viability, T/C: 73.3%
[17]
  viability, T/C: 69.7%
[18]
  viability, T/C: 49.3%
[19]
  viability, T/C: 108%
[20]
  viability, T/C: 97.5%
[21]
  viability, T/C: 90.2%
[22]
  viability, T/C: 91.7%
[23]
  viability, T/C: 71.2%
[24]
  viability, T/C: 48.3%
[25]
  viability, T/C: 85.6%
[26]
  viability, T/C: 94%
[27]
  viability, T/C: 88.6%
[28]
  viability, T/C: 85%
[29]
  viability, T/C: 67.6%
[30]
  viability, T/C: 45.7%
[31]
  viability, T/C: 84.1%
[32]
  viability, T/C: 91.2%
[33]
  viability, T/C: 92%
[34]
  viability, T/C: 79%
[35]
  viability, T/C: 58.1%
[36]
  viability, T/C: 39.2%
